Test results as given in ChEMBL document CHEMBL4673385, “Discovery of Potent Inhibitors of Streptococcus mutans Biofilm with Antivirulence Activity” (ACS Med Chem Lett, 2021).
≈ marks a conversion by molar mass, not a printed value. Calls of active or inactive are those of the source. No rule for the calls is given here.

Columns and labels:
Streptococcus mutans [1] = assay: Bactericidal activity against Streptococcus mutans UA159 assessed as reduction in bacterial growth at 100 uM after 24 hrs; type: functional, organism-based
[2] = Solubility of compound in water; type: physicochemical
Streptococcus mutans [3] = assay: Antibiofilm activity against Streptococcus mutans UA159 assessed as inhibition of biofilm formation by serial dilution method; type: functional, organism-based
[4] = Streptococcus mutans, UA159, read-out: IC50

SMILES	solubility ([2]; water, read-out: solubility) [µg/mL]	IC50 (Streptococcus mutans [3]; [4]) [µM]	solubility ([2]; buffer)	IC50 (Streptococcus mutans [3])	Activity (Streptococcus mutans [1])
COC(=O)c1ccc(NC(=O)c2cnc3ccccc3c2)cc1	< 5	92.3	–	–	inactive
CC(C)(C)OC(=O)NCc1ccccc1NC(=O)c1cc2cc([N+](=O)[O-])ccc2o1	25 (≈ 60.8 µM)	26.8	–	–	inactive
O=C(Nc1ccccc1)c1ccc2ccccc2n1	25 (≈ 101 µM)	> 300	–	–	inactive
NCc1ccccc1NC(=O)c1cc2cc([N+](=O)[O-])ccc2[nH]1	–	–	–	–	inactive
NCc1ccccc1NC(=O)c1cccc2ccccc12	25 (≈ 90.5 µM)	224	–	–	inactive
COC(=O)c1cccc(NC(=O)c2cccc3ccccc23)c1	< 5	> 300	–	–	inactive
CC(C)(C)OC(=O)NCc1ccccc1NC(=O)c1cccc2ccccc12	5 (≈ 13.3 µM)	196	–	–	inactive
CC(C)(C)OC(=O)NCc1ccccc1NC(=O)c1ccc(-c2ccccc2)cc1	< 5	124	–	–	inactive
COc1ccc2[nH]c(C(=O)Nc3cccc(C(N)=O)c3)cc2c1	5 (≈ 16.2 µM)	56.6	–	–	inactive
COC(=O)c1ccc(NC(=O)c2ccc3ccccc3c2)cc1	25 (≈ 81.9 µM)	112	–	–	inactive
O=C(Nc1ccccc1)c1cc2cc([N+](=O)[O-])ccc2o1	25 (≈ 88.6 µM)	> 300	–	–	inactive
NC(=O)c1ccccc1NC(=O)c1cc2cc([N+](=O)[O-])ccc2[nH]1	–	–	Insoluble	Nd(Insoluble)	inactive
NC(=O)c1ccc(NC(=O)c2cc3ccccc3s2)cc1	25 (≈ 84.4 µM)	45.6	–	–	inactive
NC(=O)c1ccccc1NC(=O)c1cc2ccccc2s1	< 5	45.6	–	–	inactive
COc1ccc2[nH]c(C(=O)Nc3ccccc3CNC(=O)OC(C)(C)C)cc2c1	–	–	Insoluble	Nd(Insoluble)	inactive
NC(=O)c1cccc(NC(=O)c2ccc3ccccc3c2)c1	< 5	240	–	–	inactive
COC(=O)c1cccc(NC(=O)c2cc3ccccc3s2)c1	–	–	–	–	inactive
COC(=O)c1ccccc1NC(=O)c1cccc2ccccc12	5 (≈ 16.4 µM)	> 300	–	–	inactive
NC(=O)c1cccc(NC(=O)c2ccc3ccccc3n2)c1	10 (≈ 34.3 µM)	–	–	–	inactive
COc1ccc2[nH]c(C(=O)Nc3ccccc3C(N)=O)cc2c1	10 (≈ 32.3 µM)	> 300	–	–	inactive

SMILES	solubility ([2]; water, read-out: solubility) [µg/mL]	IC50 (Streptococcus mutans [3]; [4]) [µM]	solubility ([2]; buffer)	IC50 (Streptococcus mutans [3])	Activity (Streptococcus mutans [1])
COC(=O)c1cccc(NC(=O)c2ccc(-c3ccccc3)cc2)c1	< 5	105	–	–	inactive
NCc1ccccc1NC(=O)c1cc2ccccc2s1	–	167	–	–	inactive
O=C(Nc1ccccc1)c1cc2ccccc2s1	–	> 300	–	–	inactive
NC(=O)c1ccc(NC(=O)c2cc3cc([N+](=O)[O-])ccc3s2)cc1	–	> 300	–	–	inactive
NCc1ccccc1NC(=O)c1ccc2ccccc2c1	–	–	–	–	inactive
COC(=O)c1ccccc1NC(=O)c1ccc2ccccc2c1	25 (≈ 81.9 µM)	–	–	–	inactive
CC(C)(C)OC(=O)NCc1ccccc1NC(=O)c1ccc2ccccc2c1	–	56.8	–	–	inactive
CC(C)(C)OC(=O)NCc1ccccc1NC(=O)c1ccc2ccccc2n1	< 5	67.5	–	–	inactive
NC(=O)c1ccccc1NC(=O)c1cc2cc([N+](=O)[O-])ccc2o1	5 (≈ 15.4 µM)	–	–	–	inactive
NC(=O)c1ccc(NC(=O)c2cnc3ccccc3c2)cc1	–	> 300	–	–	inactive
NC(=O)c1ccccc1NC(=O)c1ccc(-c2ccccc2)cc1	5 (≈ 15.8 µM)	193	–	–	inactive
O=C(Nc1ccccc1)c1cnc2ccccc2c1	5 (≈ 20.1 µM)	> 300	–	–	inactive
NCc1ccccc1NC(=O)c1ccc2ccccc2n1	25 (≈ 90.1 µM)	202	–	–	inactive
NC(=O)c1ccccc1NC(=O)c1cccc2ccccc12	–	150	–	–	inactive
COC(=O)c1ccccc1NC(=O)c1cc2cc([N+](=O)[O-])ccc2[nH]1	–	–	Insoluble	Nd(Insoluble)	inactive
NC(=O)c1cccc(NC(=O)c2ccc(-c3ccccc3)cc2)c1	25 (≈ 79 µM)	79.9	–	–	inactive
O=C(Nc1ccccc1)c1cc2cc([N+](=O)[O-])ccc2[nH]1	–	–	Insoluble	Nd(Insoluble)	inactive
NCc1ccccc1NC(=O)c1cc2cc([N+](=O)[O-])ccc2s1	1000 (≈ 3050 µM)	–	–	–	inactive
COC(=O)c1cccc(NC(=O)c2cnc3ccccc3c2)c1	–	–	–	–	inactive

The next lines start with results.

solubility ([2]; water, read-out: solubility) [µg/mL]	IC50 (Streptococcus mutans [3]; [4]) [µM]	solubility ([2]; buffer)	IC50 (Streptococcus mutans [3])	SMILES	Activity (Streptococcus mutans [1])
10 (≈ 34.4 µM)	–	–	–	NC(=O)c1cccc(NC(=O)c2cccc3ccccc23)c1	inactive
25 (≈ 73.5 µM)	2.7	–	–	COC(=O)c1cccc(NC(=O)c2cc3cc([N+](=O)[O-])ccc3o2)c1	inactive
–	> 300	–	–	COC(=O)c1ccc(NC(=O)c2ccc(-c3ccccc3)cc2)cc1	inactive
–	–	Insoluble	Nd(Insoluble)	COc1ccc2[nH]c(C(=O)Nc3ccccc3)cc2c1	inactive
–	–	Insoluble	Nd(Insoluble)	COC(=O)c1cccc(NC(=O)c2cc3cc(OC)ccc3[nH]2)c1	inactive
–	–	Insoluble	Nd(Insoluble)	NC(=O)c1cccc(NC(=O)c2cc3cc([N+](=O)[O-])ccc3[nH]2)c1	inactive
20 (≈ 58.8 µM)	–	–	–	COC(=O)c1ccc(NC(=O)c2cc3cc([N+](=O)[O-])ccc3o2)cc1	inactive
25 (≈ 73.2 µM)	42.3	–	–	NC(=O)c1cccc(NC(=O)c2cc3cc([N+](=O)[O-])ccc3s2)c1	inactive
5 (≈ 16.4 µM)	> 300	–	–	COC(=O)c1cccc(NC(=O)c2ccc3ccccc3c2)c1	inactive
20 (≈ 61.5 µM)	38.8	–	–	NC(=O)c1cccc(NC(=O)c2cc3cc([N+](=O)[O-])ccc3o2)c1	inactive
–	–	Insoluble	Nd(Insoluble)	COC(=O)c1cccc(NC(=O)c2cc3cc([N+](=O)[O-])ccc3[nH]2)c1	inactive
–	> 300	–	–	O=C(Nc1ccccc1)c1ccc(-c2ccccc2)cc1	inactive
< 5	–	–	–	NC(=O)c1cccc(NC(=O)c2cc3ccccc3s2)c1	inactive
< 5	110	–	–	NC(=O)c1ccc(NC(=O)c2ccc3ccccc3c2)cc1	inactive
5 (≈ 18 µM)	–	–	–	NCc1ccccc1NC(=O)c1cnc2ccccc2c1	inactive
10 (≈ 34.3 µM)	165	–	–	NC(=O)c1ccccc1NC(=O)c1ccc2ccccc2n1	inactive
–	> 300	–	–	COC(=O)c1ccccc1NC(=O)c1cc2cc([N+](=O)[O-])ccc2s1	inactive
–	–	Insoluble	Nd(Insoluble)	COC(=O)c1ccc(NC(=O)c2cc3cc(OC)ccc3[nH]2)cc1	inactive

solubility ([2]; water, read-out: solubility) [µg/mL]	IC50 (Streptococcus mutans [3]; [4]) [µM]	solubility ([2]; buffer)	IC50 (Streptococcus mutans [3])	SMILES	Activity (Streptococcus mutans [1])
25 (≈ 81.6 µM)	92.3	–	–	COC(=O)c1cccc(NC(=O)c2ccc3ccccc3n2)c1	inactive
–	196	–	–	NCc1ccccc1NC(=O)c1ccc(-c2ccccc2)cc1	inactive
–	> 300	–	–	COC(=O)c1ccccc1NC(=O)c1ccc(-c2ccccc2)cc1	inactive
25 (≈ 73.5 µM)	71.4	–	–	COC(=O)c1ccccc1NC(=O)c1cc2cc([N+](=O)[O-])ccc2o1	inactive
–	> 300	–	–	COC(=O)c1ccc(NC(=O)c2cccc3ccccc23)cc1	inactive
< 5	> 300	–	–	NC(=O)c1ccc(NC(=O)c2ccc(-c3ccccc3)cc2)cc1	inactive
–	> 300	–	–	COC(=O)c1ccccc1NC(=O)c1cc2ccccc2s1	inactive
5 (≈ 16.1 µM)	98.3	–	–	NCc1ccccc1NC(=O)c1cc2cc([N+](=O)[O-])ccc2o1	inactive
–	> 300	–	–	NC(=O)c1ccc(NC(=O)c2cc3cc([N+](=O)[O-])ccc3o2)cc1	inactive
–	> 300	–	–	O=C(Nc1ccccc1)c1cccc2ccccc12	inactive
–	–	Insoluble	Nd(Insoluble)	COC(=O)c1ccc(NC(=O)c2cc3cc([N+](=O)[O-])ccc3[nH]2)cc1	inactive
–	–	Insoluble	Nd(Insoluble)	COc1ccc2[nH]c(C(=O)Nc3ccccc3CN)cc2c1	inactive
–	–	Insoluble	Nd(Insoluble)	CC(C)(C)OC(=O)NCc1ccccc1NC(=O)c1cc2cc([N+](=O)[O-])ccc2[nH]1	inactive
–	> 300	–	–	COc1ccc2[nH]c(C(=O)Nc3ccc(C(N)=O)cc3)cc2c1	inactive
–	> 300	–	–	O=C(Nc1ccccc1)c1ccc2ccccc2c1	inactive
25 (≈ 81.6 µM)	–	–	–	COC(=O)c1ccc(NC(=O)c2ccc3ccccc3n2)cc1	inactive
< 5	–	–	–	NC(=O)c1ccc(NC(=O)c2cccc3ccccc23)cc1	inactive
